Patent US11999720B2, “Pyrazolylacylpyrazoline compounds and method for treating pain” (THE TRUSTEES OF INDIANA UNIVERSITY, priority 2018, dated 2024)
“Also recorded” adds a separate entry of the source. Where two headings read alike, the source gives them in different places.

Key:
[1] = tested on: T1, CaV2.2 channels in HEK-CaV2.2 cells (Rattus norvegicus); assay: whole cell patch-clamp, CaV2.2 currents in HEK-CaV2.2 cells; assay type: cell-based
T1 construct: expressed in transfected cells
Description: The G-V curves are shown.
HEK-CaV2.2 cells were pretreated with various concentrations of compound 14 for 48 hours. CaV2.2 currents were acquired during 20-ms depolarizing pulses, and the current densities were calculated as a ratio of the peak current amplitude and each cell capacitance (0.1 μM, n=6; 1 μM, n=7; 10 μM, n=8; 50 μM, n=12). The line is the fit of the data to the four-parameter logistic function.
EK-CaV2.2 cells were pretreated with the indicated compounds for 48 hours. *** corresponds to […].
FIGS. 8 and 9 show the effects of 2 and 14 on the voltage dependence of activation of CaV2.2 channels in HEK-CaV2.2 cells pretreated with the vehicle or the indicated compounds for 48 hours. […] The gray vertical lines are the error bars (S.E.M.).
FIGS. 10 and 11 show acute effects of DMSO and 14 on the voltage dependence of activation of CaV2.2 channels in HEK-CaV2.2 cells. […] The gray vertical lines are the error bars (S.E.M.). “ns”—stands for not significant.
The whole cell patch-clamp technique was used to record CaV2.2 currents in HEK-CaV2.2 cells and rat DRG neurons. HEK293 cells that stably expressed rat N-type CaV2.2α1B, rat CaVβ3, and rat […] were utilized. Cells were grown in Dulbecco's modified Eagle's medium (DMEM) supplemented with 10% FBS, 50 units penicillin, 50 μg/ml streptomycin, 5 μg/ml blasticidin, 5 μg/ml hydromycin and 25 μg/ml zeozin at 37° C. in a humidified atmosphere of 95% air and 5% CO2. For patch clamp experiments, HEK-CaV2.2 cells were plated on glass coverslips and were cultured for 24-48 h. All animal procedures were performed in accordance to the NIH guide and were approved by the Indiana University School of Medicine Institutional Animal Care and Use Committee. Young adult Sprague Dawley rats were anesthetized (3% isoflurane) and then decapitated. The spinal column was removed, cut open, and dorsal root ganglia were harvested from the Lumbar L4-L6 vertebral levels. The ganglia were incubated in DMEM containing collagenase (1 mg/ml, Worthington: LS04194) and protease (1 mg/ml, Worthington: LS02104) for 30-60 minutes, and DRG neurons were dissociated by triturating in DMEM supplemented with 10% FBS. The isolated DRG neurons were plated on glass coverslips coated with growth factor reduced Matrigel (Thermo Fisher Scientific, Waltham, MA) and were cultured in Eagle's minimum essential medium (Invitrogen, CA) supplemented with 0.2% BSA and 20 ng/ml NGF-2.5S (BD Biosciences, Bedford, MA) at 37° C. in a water-jacketed 5% CO2 incubator overnight for the patch-clamp experiments.

CaVα1CaVβ3 interaction = molecular target: T2, CaVα1CaVβ3 interaction (Rattus norvegicus, UniProt P54287); assay: fluorescence polarization assay, inhibition constant; assay type: binding; conditions: for Ki: fluorescence polarization assay
T2 construct: made in house; host or cells: E. coli BL21(DE3)
Description: The plasmid of pET28a-CaV2.2β3 subunit was transformed into competent E. Coli BL21(DE3) strain. Culture was grown in LB medium at 37° C. to an OD600 of approximately 0.6 and then induced with 0.5 mM IPTG at 16° C. for 16 h. Cells were collected by centrifugation and lysed by microfluidizer in lysis buffer (phosphate buffer, pH 7.6, 2 mM DTT). The His-CaVβ3 protein was purified at 4° C. using Ni-IMAC chromatography (His-Trap HP, GE Healthcare) and eluted with 500 mM imidazole in lysis buffer with a gradient method. After the fractions consisted of His-CaVβ3 was combined and concentrated, the protein was further purified using size exclusion chromatography (Superdex 200 pg, GE Healthcare) in PBS with 2 mM DTT.
Compound 6 forms a salt bridge interaction with Arg-307 through a benzoic acid moiety. […] Arg-307 was mutated to alanine.

[2] = pharmacokinetics, plasma concentrations by LC-MS/MS after IV and PO administration; assay type: in vivo, Kunming mice; conditions: Kunming, mouse; for half-life: read-out: elimination half-life (converted); for Cmax: read-out: Cmax peak plasma concentration
Description: Plasma concentrations at various time points were determined using liquid chromatography tandem mass spectroscopy (LC-MS/MS). For intravenous (IV) administration, compound 14 was formulated as a solution at a final dose of 1 mg/kg.
For oral gavage (PO) administration, compound 14 was formulated as a solution at a final dose of 10 mg/kg. Plasma concentrations at various time points were determined using LC-MS/MS.
PK profiles of compound 14 after intravenous and oral administration was performed in Kunming mice. Plasma concentrations were determined by liquid chromatography tandem mass spectroscopy. Summary of PK properties and plasma concentration measured 1 hour after intravenous or oral administration of 1 or 10 mg/kg compound 14.

[3] = tested on: tibial nerve injury (TNI) model of neuropathic pain; assay: tibial nerve injury (TNI) model of neuropathic pain, von Frey withdrawal threshold; assay type: in vivo, rat
Description: Pathogen-free, adult, female Sprague Dawley (weight at testing 150-200 g; Harlan-Sprague-Dawley, Indianapolis, IN) were housed in a climate-controlled room on a 12-hour light/dark cycle and were allowed to have food and water ad libitum. All procedures were approved by the Indiana University Animal Care and Use Committee and conformed to the guidelines of the National Institutes of Health (publication no. 80-23, 1966) for the use of laboratory animals. All behavioral experiments were conducted by experimenters blinded to the treatment conditions and compound identity. The experiments were replicated a minimum of 2 times with independent cohorts of animals.
For in vivo studies, the inventive compounds were freshly prepared saline (0.9%) on the day of the experiment. Morphine sulfate salt (Sigma-Aldrich, St. Louis, MO) was freshly prepared on the day of the experiment in saline. […]
The inventive compounds were assessed with the tibial nerve injury (TNI) model of neuropathic pain 28 days after surgery. Using isoflurane anesthesia (4% induction and 2% maintenance), the right sciatic nerve was isolated under aseptic surgical conditions by blunt dissection of the femoral biceps muscle and the tibial nerve was tightly ligated with 5-0 silk and transected distal to the ligation. Additional 2 to 3 mm of distal nerve stump was removed to prevent reinnervation by the proximal nerve. The overlying muscle and skin was then sutured in 2 separate layers. Sham-injured animals were subjected to all preceding procedures with the exception of ligation and transection. All animals were returned to the housing facility and allowed to survive for 28 d. Mechanical stimuli were applied with 7 filaments, each differing in the bending force delivered (10, 20, 40, 60, 80, 100, and 120 mN), and fitted with a flat tip and fixed diameter of 0.2 mm. The filaments were tested in the order of ascending force, with each filament delivered for 1 second. Withdrawal threshold was determined by sequentially increasing and analyzed with Hill equation was fitted to the function (Origin version 6.0; Microcal Software) relating the percentage of indentations eliciting a withdrawal to the force of indentation.

T1 sequence (P54287 whole entry): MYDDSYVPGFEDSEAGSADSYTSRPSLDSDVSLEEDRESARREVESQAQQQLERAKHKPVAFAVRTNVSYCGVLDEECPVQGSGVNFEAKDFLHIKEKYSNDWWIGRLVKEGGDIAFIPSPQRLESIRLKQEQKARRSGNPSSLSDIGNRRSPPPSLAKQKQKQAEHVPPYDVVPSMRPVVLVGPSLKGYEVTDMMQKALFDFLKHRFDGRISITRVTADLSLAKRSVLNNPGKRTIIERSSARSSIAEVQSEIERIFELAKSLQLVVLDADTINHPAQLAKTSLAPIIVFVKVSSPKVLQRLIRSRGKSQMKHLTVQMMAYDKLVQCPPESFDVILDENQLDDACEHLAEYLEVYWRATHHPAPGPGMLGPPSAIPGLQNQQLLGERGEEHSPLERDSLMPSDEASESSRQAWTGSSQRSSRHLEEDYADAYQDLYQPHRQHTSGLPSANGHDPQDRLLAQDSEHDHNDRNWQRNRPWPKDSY
T2 sequence (P54287 whole entry): as above

COc1ccc(C2=NN(C(=O)c3cccc(C(=O)O)c3)C(c3cn(-c4ccccc4)nc3-c3ccc(-c4ncc[nH]4)cc3)C2)cc1 (centres unmarked) [Compound 15, 3-(3′-(4-(1H-imidazol-2-yl)phenyl)-5-(4-methoxyphenyl)-1′-phenyl-3,4-dihydro-1′H,2H-[3,4′-bipyrazole]-2-carbonyl)benzoic acid]
half-activation voltage V0.5, act after acute treatment ([1]; 50 μM, 5 min incubation, before 6.4±1.9): 11.4±1.7 mV
density of CaV2.2 currents ([1]; 50 μM, pretreated 48 hours, depolarizing pulses to 0 mV from holding potential −80 mV, DMSO −74.8±7.0): −11.1±2.4 pA/pF

COc1ccc(C2=NN(C(=O)CCC(=O)O)C(c3cn(-c4ccccc4)nc3-c3ccc(C)cc3)C2)cc1 (centres unmarked) [Compound 1]
Ki (CaVα1CaVβ3 interaction): 6.7 ± 0.3 µM

COc1ccc(C2=NN(C(=O)c3cccc(C(=O)O)c3)C(c3cn(-c4cccnc4)nc3-c3ccc(C)cc3)C2)cc1 (centres unmarked) [Compound 12, 3-(5-(4-methoxyphenyl)-1′-(pyridin-3-yl)-3′-(p-tolyl)-3,4-dihydro-1′H,2H-[3,4′-bipyrazole]-2-carbonyl)benzoic acid]
Ki (CaVα1CaVβ3 interaction): 5 ± 1.9 µM

COc1ccc(C2=NN(C(=O)c3cccc(C(=O)O)c3)C(c3cn(-c4ccc(OC)cc4)nc3-c3ccc(C)cc3)C2)cc1 (centres unmarked) [Compound 10, 3-(1′,5-bis(4-methoxyphenyl)-3′-(p-tolyl)-3,4-dihydro-1′H,2H-[3,4′-bipyrazole]-2-carbonyl)benzoic acid]
Ki (CaVα1CaVβ3 interaction): 3.7 ± 0.2 µM

COC(=O)c1cccc(C(=O)N2N=C(c3ccc(OC)cc3)CC2c2cn(-c3ccccc3)nc2-c2ccc(C)cc2)c1 (centres unmarked) [Compound 7, methyl 3-(5-(4-methoxyphenyl)-1′-phenyl-3′-(p-tolyl)-3,4-dihydro-1′H,2H-[3,4′-bipyrazole]-2-carbonyl)benzoate]
inhibition of the CaVα1CaVβ3 interaction (CaVα1CaVβ3 interaction; removal of the charge of the benzoic acid moiety): complete loss of inhibition

COc1ccc(C2=NN(C(=O)c3cccc(-c4nnn[nH]4)c3)C(c3cn(-c4ccccc4)nc3-c3ccc(C)cc3)C2)cc1 (centres unmarked) [Compound 14, (3-(1H-tetrazol-5-yl)phenyl)(5-(4-methoxyphenyl)-1′-phenyl-3′-(p-tolyl)-3,4-dihydro-1′H,2H-[3,4′-bipyrazol]-2-yl)methanone]
half-life ([2]; IV, 1 mg/kg): 17.4 min
AUC(0-t) ([2]; iv, 1 mg/kg): 58 ng·h/mL
Tmax ([2]; iv, 1 mg/kg): 4.98 min
Cmax ([2]; iv, 1 mg/kg): 181 ng/mL
AUC(0-t) ([2]; oral gavage (PO), 10 mg/kg): 636 ng·h/mL
Tmax ([2]; oral gavage (PO), 10 mg/kg): 60 min
Cmax ([2]; oral gavage (PO), 10 mg/kg): 165 ng/mL
half-life ([2]; oral gavage (PO), 10 mg/kg): 119 min
reversal of mechanical hypersensitivity (PWT) ([3]; 0.1 mg/kg single bolus, 1 and 24 h post-dosing, 4 weeks after TNI): significantly reversed mechanical hypersensitivity at both 1 and 24 h post-dosing; also recorded: significantly increased PWTs at both 1 and 24 hours post-injection
Ki (CaVα1CaVβ3 interaction): 2 ± 0.2 µM
steady-state inactivation V0.5, inact ([1]; 50 μM, pretreated 48 hours): −52.9±1.3 mV
IC50 ([1]; pretreated 48 hours, current densities, four-parameter logistic fit, read-out: apparent IC50 for inhibition of CaV2.2 currents): 31 µM
mean half-activation potential V0.5, act ([1]; pretreated 48 hours, DMSO 8.7±1.1): 16.5±1.1 mV

COc1ccc(C2=NN(C(=O)c3cccc(C(=O)O)c3)C(c3cn(-c4ccccc4)nc3-c3ccc(Cl)cc3)C2)cc1 (centres unmarked) [Compound 8, 3-(3′-(4-chlorophenyl)-5-(4-methoxyphenyl)-1′-phenyl-3,4-dihydro-1′H,2H-[3,4′-bipyrazole]-2-carbonyl)benzoic acid]
Ki (CaVα1CaVβ3 interaction): 1.2 ± 0.1 µM

Cc1ccc(-c2nn(-c3ccccc3)cc2C2CC(c3ccc(-c4ccccn4)cc3)=NN2C(=O)CCC(=O)O)cc1 (centres unmarked) [Compound 4, 4-oxo-4-(1′-phenyl-5-(4-(pyridin-2-yl)phenyl)-3′-(p-tolyl)-3,4-dihydro-1′H,2H-[3,4′-bipyrazol]-2-yl)butanoic acid]
Ki (CaVα1CaVβ3 interaction): 2.2 ± 0.3 µM

CN1CC[C@]23c4c5ccc(O)c4O[C@H]2[C@@H](O)C=C[C@H]3[C@H]1C5.O=S(=O)(O)O [morphine, Morphine sulfate salt, reference compound]
withdrawal threshold to von Frey stimulation ([3]; 5 mg/kg systemic, 28 days after TNI): 32±2.6 mN

COc1ccc(C2=NN(c3cccc(C(=O)O)c3)C(c3cn(-c4ccccc4)nc3-c3ccc(C)cc3)C2)cc1 (centres unmarked) [Compound 11, 3-(5-(4-methoxyphenyl)-1′-phenyl-3′-(p-tolyl)-3,4-dihydro-1′H,2H-[3,4′-bipyrazol]-2-yl)benzoic acid]
Ki (CaVα1CaVβ3 interaction): 3.9 ± 0.9 µM
